Results reported in patent publication US20260306485A1, “COMPOSITIONS AND METHODS FOR THE TREATMENT OF CONGENITAL ADRENAL HYPERPLASIA” (CRINETICS PHARMACEUTICALS, INC., priority 2023, published 2026).

How the values were obtained:
Assay type in all cases: in vivo, human
[1] = test system: serum A4/testosterone (male/men); assay: Phase 2 CAH study, Cohort 1 initial analysis: morning serum A4/testosterone, male participants; conditions: 80 mg QD oral, n=1; for A4/T ratio in the patient: baseline 0.3, normal <0.2
From the text: (§1) Up to approximately 30 participants will be enrolled in the study. Each cohort will enroll at least 6 participants, with a possible expansion of up to an additional 6 participants in cohorts 1 and 2, to a maximum of 12 evaluable participants in those cohorts. The treatment duration will be up to Day 84 (12 Weeks) per participant. The total study duration will be up to 140 days (up to 4 weeks of screening, 12 weeks of treatment, and 4 weeks of follow-up) per participant. The visit frequency will be at Screening (2 visits), on Day 1 (Baseline), and at Weeks 2 (Day 14), 6 (Day 42), and 12 (Day 84). A Safety Follow-up Visit will occur 2 weeks following the last dose of CRN04894 (Week 14; Day 98), and a telephone call to collect any adverse events (AEs) will occur at 4 weeks after the last dose of CRN04894 (Week 16, Day 112). The study design is discussed in detail below.
(§2) Participants in all cohorts will continue their preexisting glucocorticoid replacement dosing regimens/doses throughout the study. In addition, starting the night of Day 1 and ending the night before the Week 12/end of treatment (EOT) visit, each cohort will administer CRN04894 between 22:00-24:00 (at approximately the same time each night) once daily (QD) before sleep.
(§3) Participants in Cohort 1 will receive 80 mg of CRN04894 QD. After at least 3 participants have completed 2 weeks of dosing with 80 mg of CRN04894 QD in Cohort 1, an interim analysis evaluating PD, PK, efficacy, and safety will be reviewed by the Safety Review Committee (SRC). If it is safe to continue, the SRC will recommend dosing of 120 mg of CRN04894 in Cohort 2. However, the SRC can recommend a lower dose (i.e., 40 mg of CRN04894 QD) in Cohort 2 based on review of safety data. The SRC also has the option to recommend increasing enrollment up to a total of 12 participants each in Cohorts 1 and/or 2. In this situation, expanded enrollment in the cohort will be completed, and data from the expanded cohort will be reviewed by the SRC prior to enrollment in the subsequent cohort.
(§4) A pharmacodynamic biomarker panel will be drawn. The biomarker panel will include the following: • 17-hydroxyprogesterone (17-OHP); • Adrenocorticotropic hormone (ACTH) (plasma); • Testosterone; • Androstenedione (A4); • Dehydroepiandrosterone (DHEA); • Dehydroepiandrosterone sulfate (DHEA-S); • 11-deoxycorticosterone (11-DOC); • 21-deoxycortisol; • 11β-hydroxyandrostenedione (11-OHA4); • 11-ketoandrostenedione (11-ketoA4); • 11β-hydroxytestosterone (11-OHT); • 11-ketotestosterone (11-ketoT); • Aldosterone; and • Renin.
(§5) Visits 2-7: Prior to receiving the morning GC replacement dose, a total of 2 blood draws (approximately 1 hour apart) for PD biomarkers will be drawn. The drawing of the PD biomarkers should be one of the first visit activities performed at the start of the visit. Visits should start as early in the morning as possible (preferably 07:00-08:00), so as to minimize any delay in administration of the morning GC dose and the timing of each study visit should be as consistent as possible. The second set of PD biomarkers should be drawn no later than 11:00 am.
(§6) The initial analysis summarizes the data of four participates (n=4) of Cohort 1 who received 80 mg of CRN04894 QD. There were three female/women participants (n=3) and one male/men participant (n=1).
(§7) Cohort 1 initial analysis of % changes in values from baseline of morning serum A4, morning serum 17-OHP, morning serum testosterone in females, morning serum testosterone in males, and morning serum A4/testosterone in males are presented in Table 4 below. These changes from baseline are also depicted in FIG. 1, FIG. 2, FIG. 4, FIG. 5, and FIG. 10, respectively.
(§8) Patients (aged ≥18 to 75, ≥16 years in USA) with classical CAH on a stable dose of glucocorticoid replacement for at least six months were enrolled and received 80 mg once daily, oral CRN04894 for 12 weeks followed by a four-week washout. […]

[2] = Phase 2 CAH study, Cohort 1 initial analysis: menstruation; conditions: 80 mg QD oral; three female participants in cohort
From the text: as §1, §2
Participants in Cohort 1 will receive 80 mg of CRN04894 QD. […]

[3] = test system: serum testosterone (male/men); assay: Phase 2 CAH study, Cohort 1 initial analysis: morning serum testosterone, male participants; conditions: 80 mg QD oral, n=1
From the text: as §1, §2, §3, §4
(§9) Visits 2-7: Prior to receiving the morning GC replacement dose, a total of 2 blood draws (approximately 1 hour apart) for PD biomarkers will be drawn. […]

[4] = test system: serum 17-hydroxyprogesterone (17-OHP); assay: Phase 2 CAH study, Cohort 1 initial analysis: morning serum 17-hydroxyprogesterone (17-OHP); conditions: 80 mg QD oral; for 17-OHP reduction (mean±SD): baseline 4740 to 6905 ng/dL
From the text: The secondary efficacy objective is to evaluate the efficacy of CRN04894, measured by the change from baseline in serum 17-hydroxyprogesterone (17-OHP), with the secondary efficacy endpoint being the change from baseline in the morning (before 11:00 AM) serum 17-OHP at week 12.
as §1, §2, §3, §4, §5, §6
(§10) Cohort 1 initial analysis of % changes in values from baseline of morning serum A4, morning serum 17-OHP, morning serum testosterone in females, morning serum testosterone in males, and morning serum A4/testosterone in males are presented in Table 4 below. These changes from baseline are also depicted in FIG. 1, FIG. 2, FIG. 4, FIG. 5, and FIG. 10, respectively. […]

[5] = test system: serum testosterone (female/women); assay: Phase 2 CAH study, Cohort 1 initial analysis: morning serum testosterone, female participants; conditions: 80 mg QD oral; for testosterone reduction (mean±SD), female participants: morning, baseline 114 ng/dL
From the text: as §1, §2, §3, §4, §5, §6, §7, §8

[6] = test system: serum androstenedione (A4); assay: Phase 2 CAH study, Cohort 1 initial analysis: morning serum androstenedione (A4); conditions: 80 mg QD oral; for A4 reduction (mean±SD): morning, baseline 116 to 604 ng/dL
From the text: The primary efficacy objective is to evaluate the efficacy of CRN04894, measured by the change from baseline in serum androstenedione (A4), with the primary efficacy endpoint being the change from baseline in the morning (before 11:00 AM) serum A4 at week 12.
as §1, §2, §3, §4, §5, §6, §10

[7] = test system: plasma adrenocorticotropic hormone (ACTH); assay: Phase 2 CAH study, Cohort 1 initial analysis: morning plasma ACTH; conditions: 80 mg QD oral; for variation in ACTH levels during treatment: morning, baseline 155 to 1009 pg/mL
From the text: as §1, §2, §3, §4, §9

For CCOc1ccccc1-c1ccc(N2CCN(C(=O)C3(C(F)(F)F)CCC3)C[C@H]2CC)c(C(=O)N[C@@H]2CN3CCC2CC3)n1 [CRN04894, N-[(3S)-1-Azabicyclo[2.2.2]octan-3-yl]-6-(2-ethoxyphenyl)-3-[(2R)-2-ethyl-4-[1-(trifluoromethyl)cyclobutanecarbonyl]-piperazin-1-yl]pyridine-2-carboxamide], the “% Change in morning A4/testosterone (male/men)” value ([1]; Mean, Week 2) was −73%, the “% Change in morning A4/testosterone (male/men)” value ([1]; Mean, Week 6) was −79% and the “% Change in morning A4/testosterone (male/men)” value ([1]; Median, Week 2) was −73%. For the same molecule, the “% Change in morning A4/testosterone (male/men)” value ([1]; Median, Week 6) was −79%, the “A4/T ratio in the patient” value ([1]; week 2) was 0.08 and the “A4/T ratio in the patient” value ([1]; week 6) was 0.06. For the same molecule, the “menstruation in female participants” value [2] was “Two female participants in this cohort menstruated for the first time in over 2 years”, the “% Change in morning testosterone (male/men)” value ([3]; Mean, Week 2) was 9% and the “% Change in morning testosterone (male/men)” value ([3]; Mean, Week 6) was 11%. For the same molecule, the “% Change in morning testosterone (male/men)” value ([3]; Median, Week 2) was 9%, the “% Change in morning testosterone (male/men)” value ([3]; Median, Week 6) was 11% and the “% Change in morning 17-OHP” value ([4]; Mean, Week 2, n=4) was −96%. For the same molecule, the “% Change in morning 17-OHP” value ([4]; Mean, Week 6, n=4) was −97%, the “% Change in morning 17-OHP” value ([4]; Mean, Week 12, n=2) was −83% and the “% Change in morning 17-OHP” value ([4]; Median, Week 2, n=4) was −96%. For the same molecule, the “% Change in morning 17-OHP” value ([4]; Median, Week 6, n=4) was −97%, the “% Change in morning 17-OHP” value ([4]; Median, Week 12, n=2) was −83% and the “17-OHP reduction (mean±SD)” value ([4]; Week 2, n=4) was 96%±2%. The “17-OHP reduction (mean±SD)” value ([4]; Week 6, n=4) was 97%±0.3%, the “17-OHP reduction (mean±SD)” value ([4]; Week 12, n=2) was 83%±22% and the “17-OHP reduction, onset and maintenance” value ([4]; all participants) was “rapid and profound 17-OHP reduction within two weeks, which were maintained for the duration of therapy”. For the same molecule, the “% Change in morning testosterone (female/women)” value (shortened to “% Change … (female/women)”) ([5]; Mean, Week 2, n=3) was −61%, the “% Change … (female/women)” value ([5]; Mean, Week 6, n=3) was −65% and the “% Change … (female/women)” value ([5]; Mean, Week 12, n=2) was −97%. The “% Change … (female/women)” value ([5]; Median, Week 2, n=3) was −86%, the “% Change … (female/women)” value ([5]; Median, Week 6, n=3) was −96% and the “% Change … (female/women)” value ([5]; Median, Week 12, n=2) was −97%. The “testosterone reduction (mean±SD), female participants” value (from here on “testosterone reduction (mean±SD)”) ([5]; Week 2, n=3) was 61%±53%, the “testosterone reduction (mean±SD)” value ([5]; Week 6, n=3) was 65%±56% and the “testosterone reduction (mean±SD)” value ([5]; Week 12, n=2) was 97%±1%. The “% Change in morning serum A4” value ([6]; Mean, Week 2, n=4) was −86%, the “% Change in morning serum A4” value ([6]; Mean, Week 6, n=4) was −90% and the “% Change in morning serum A4” value ([6]; Mean, Week 12, n=2) was −88%. For the same molecule, the “% Change in morning serum A4” value ([6]; Median, Week 2, n=4) was −88%, the “% Change in morning serum A4” value ([6]; Median, Week 6, n=4) was −94% and the “% Change in morning serum A4” value ([6]; Median, Week 12, n=2) was −88%. For the same molecule, the “A4 reduction (mean±SD)” value ([6]; Week 2, n=4) was 86%±10%, the “A4 reduction (mean±SD)” value ([6]; Week 6, n=4) was 90%±9% and the “A4 reduction (mean±SD)” value ([6]; Week 12, n=2) was 88%±15%. The “A4 reduction, onset and maintenance” value ([6]; all participants) was “rapid and profound A4 reduction within two weeks, which were maintained for the duration of therapy”, the “A4 levels relative to upper limit of normal” value ([6]; all visits following treatment, normal 30-200 ng/dL females, 40-150 ng/dL males) was “all A4 levels ending below the upper limit of normal (<ULN) at all visits following treatment” and the “ACTH levels, trend during treatment” value ([7]; in words) was “Modest variations in ACTH levels without a consistent directional trend”. For the same molecule, the “variation in ACTH levels during treatment” value (shortened to “variation”) ([7]; Week 2, n=4) was −25%±57%, the “variation” value ([7]; Week 6, n=4) was 51%±87% and the “variation” value ([7]; Week 12, n=2) was −13%±67%.
